The values below come from ChEMBL document CHEMBL5465560, “Selectivity Literature for EUbOPEN Chemogenomic Library” (2024).

The target of assay [1] is T1, Mitogen-activated protein kinase kinase kinase 6 (Homo sapiens) (UniProt O95382).
T1 sequence (whole entry): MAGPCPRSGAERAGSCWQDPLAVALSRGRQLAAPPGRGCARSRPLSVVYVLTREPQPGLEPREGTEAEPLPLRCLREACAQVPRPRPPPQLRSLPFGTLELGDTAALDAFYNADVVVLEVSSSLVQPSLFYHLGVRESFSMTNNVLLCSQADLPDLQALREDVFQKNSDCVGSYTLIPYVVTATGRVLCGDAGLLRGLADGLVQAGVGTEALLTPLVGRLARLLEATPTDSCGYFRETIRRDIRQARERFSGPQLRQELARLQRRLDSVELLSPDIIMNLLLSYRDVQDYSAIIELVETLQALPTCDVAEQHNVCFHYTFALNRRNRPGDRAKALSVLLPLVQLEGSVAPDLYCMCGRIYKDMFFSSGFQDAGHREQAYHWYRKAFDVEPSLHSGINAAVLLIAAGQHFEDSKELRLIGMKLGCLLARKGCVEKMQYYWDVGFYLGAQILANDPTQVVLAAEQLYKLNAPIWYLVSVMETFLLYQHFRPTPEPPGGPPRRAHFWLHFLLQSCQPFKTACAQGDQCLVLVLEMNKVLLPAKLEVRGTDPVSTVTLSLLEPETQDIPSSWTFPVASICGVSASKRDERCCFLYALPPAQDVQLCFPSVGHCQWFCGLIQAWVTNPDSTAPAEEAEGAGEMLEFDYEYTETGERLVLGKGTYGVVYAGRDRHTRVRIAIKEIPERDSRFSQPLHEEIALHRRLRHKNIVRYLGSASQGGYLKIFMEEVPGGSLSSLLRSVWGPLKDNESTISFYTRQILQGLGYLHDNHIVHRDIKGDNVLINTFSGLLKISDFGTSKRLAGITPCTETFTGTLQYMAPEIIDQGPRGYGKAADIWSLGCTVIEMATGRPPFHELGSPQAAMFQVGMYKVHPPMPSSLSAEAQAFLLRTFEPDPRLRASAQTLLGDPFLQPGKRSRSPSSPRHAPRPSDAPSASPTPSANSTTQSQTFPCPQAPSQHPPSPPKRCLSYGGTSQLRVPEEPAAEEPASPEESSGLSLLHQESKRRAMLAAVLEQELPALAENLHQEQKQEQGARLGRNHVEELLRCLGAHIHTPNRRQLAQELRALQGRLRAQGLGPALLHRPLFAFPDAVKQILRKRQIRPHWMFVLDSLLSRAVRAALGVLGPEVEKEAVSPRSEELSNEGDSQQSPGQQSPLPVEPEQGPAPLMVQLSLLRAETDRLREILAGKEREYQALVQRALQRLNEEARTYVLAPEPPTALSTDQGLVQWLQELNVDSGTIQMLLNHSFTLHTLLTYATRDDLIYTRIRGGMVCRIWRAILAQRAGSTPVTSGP
The assay can be described thus: Selectivity interaction (ActivX KiNativ screen (kinase selectivity in THP-1 cell lysates)) EUB0000639a MAP3K6. The assay is classed as subcellular. Conditions: lysate.

Assay [2] has as its target T2, Mitogen-activated protein kinase kinase kinase 2 (Homo sapiens) (UniProt Q9Y2U5).
T2 sequence (whole entry): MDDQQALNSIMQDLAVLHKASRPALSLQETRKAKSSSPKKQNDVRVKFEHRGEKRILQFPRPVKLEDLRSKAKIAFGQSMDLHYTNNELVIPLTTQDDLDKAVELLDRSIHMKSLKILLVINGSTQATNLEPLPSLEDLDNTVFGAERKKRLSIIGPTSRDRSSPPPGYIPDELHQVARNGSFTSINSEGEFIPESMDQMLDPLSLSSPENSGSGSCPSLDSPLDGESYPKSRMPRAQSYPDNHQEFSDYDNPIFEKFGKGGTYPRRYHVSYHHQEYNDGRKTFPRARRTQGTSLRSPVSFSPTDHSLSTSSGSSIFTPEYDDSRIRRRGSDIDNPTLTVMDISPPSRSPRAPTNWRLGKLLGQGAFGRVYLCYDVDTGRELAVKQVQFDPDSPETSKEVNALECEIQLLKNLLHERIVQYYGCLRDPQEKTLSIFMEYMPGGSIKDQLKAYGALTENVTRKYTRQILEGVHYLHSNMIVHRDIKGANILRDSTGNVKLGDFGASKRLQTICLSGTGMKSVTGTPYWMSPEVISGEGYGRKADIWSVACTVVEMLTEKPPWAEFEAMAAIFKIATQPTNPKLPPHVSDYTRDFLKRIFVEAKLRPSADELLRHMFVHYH
The assay can be described thus: Selectivity interaction (ActivX KiNativ screen (kinase selectivity in THP-1 cell lysates)) EUB0000639a MAP3K2. The assay is classed as subcellular. Conditions: lysate, at 0.04 µM.

As for `CC[C@@H]1[C@H](F)C(=O)N[C@@H]1COc1nccc2cc(C(N)=O)c(OC)cc12` [ZIMLOVISERTIB], the % of inhibition in assay [1] (at 0.01 µM) was -12.1%; in assay [1] (at 0.04 µM) it was -3.2%; in assay [1] (at 0.2 µM), 0%; in assay [1] (at 1 µM), -6.5%; in assay [1] (at 5 µM), -21.9%; in assay [2], 1.8%.
